# Measurements: US20230340011A1 (Asteroid Therapeutics, priority 2022, published 2023)
# Molecular target: SREBP-2 (Homo sapiens (Human), UniProt Q12772)
# Experiment: In vitro assay SREBP-2: PathHunter U2OS SREBP-2 Nuclear Translocation Cell Line, U18666A-stimulated
# Type: cell-based
# Conditions: PathHunter U2OS SREBP-2 nuclear translocation cells, U18666A 10 μM, overnight (16 hours)
row,SMILES,IC50 [nM]
1,"Cc1ccc(OC[C@@H](C)[C@H]2CC[C@H]3[C@@H]4CC=C5C[C@@H](O)CC[C@]5(C)[C@H]4CC[C@]23C)nc1 [Example 263, (3S,8S,9S,10R,13S,14S,17R)-10,13-dimethyl-17-((S)-1-((5-methylpyridin-2-yl)oxy)propan-2-yl)-2,3,4,7,8,9,10,11,12,13,14,15,16,17-tetradecahydro-1H-cyclopenta[a]phenanthren-3-ol]",250 to 1000
2,"CNC(=O)c1ccc(OC[C@@H](C)[C@H]2CC[C@H]3[C@@H]4CC=C5C[C@@H](O)CC[C@]5(C)[C@H]4CC[C@]23C)nc1 [Example 449, 6-((S)-2-((3S,8S,9S,10R,13S,14S,17R)-3-hydroxy-10,13-dimethyl-2,3,4,7,8,9,10,11,12,13,14,15,16,17-tetradecahydro-1H-cyclopenta[a]phenanthren-17-yl)propoxy)-N-methylnicotinamide]",< 250
3,"C[C@H](CCC(=O)N1CCC[C@H](Oc2cnn(C)c2)C1)[C@H]1CC[C@H]2[C@@H]3CC=C4C[C@@H](O)CC[C@]4(C)[C@H]3CC[C@]12C [Example 517, (4R)-4-[(1R,3aS,3bS,7S,9aR,9bS,11aR)-7-hydroxy-9a,11a-dimethyl-1H,2H,3H,3aH,3bH,4H,6H,7H,8H,9H,9aH,9bH,10H,11H,11aH-cyclopenta[a]phenanthren-1-yl]-1-[(3S)-3-[(1-methyl-1H-pyrazol-4-yl)oxy]piperidin-1-yl]pentan-1-one]",< 250
4,"C[C@H](CCc1ncccc1C(C)(C)O)[C@H]1CC[C@H]2[C@@H]3CC=C4C[C@@H](O)CC[C@]4(C)[C@H]3CC[C@]12C [Example 456, (3S,8S,9S,10R,13R,14S,17R)-17-((R)-4-(3-(2-hydroxypropan-2-yl)pyridin-2-yl)butan-2-yl)-10,13-dimethyl-2,3,4,7,8,9,10,11,12,13,14,15,16,17-tetradecahydro-1H-cyclopenta[a]phenanthren-3-ol]",< 250
5,"C[C@H](CCC(=O)N1CC[C@H](NC(=O)c2cnn(C)c2)C1)[C@H]1CC[C@H]2[C@@H]3CC=C4C[C@@H](O)CC[C@]4(C)[C@H]3CC[C@]12C [Example 526, N-[(3S)-1-[(4R)-4-[(1R,3aS,3bS,7S,9aR,9bS,11aR)-7-hydroxy-9a,11a-dimethyl-1H,2H,3H,3aH,3bH,4H,6H,7H,8H,9H,9aH,9bH,10H,11H,11aH-cyclopenta[a]phenanthren-1-yl]pentanoyl]pyrrolidin-3-yl]-1-methyl-1H-pyrazole-4-carboxamide]",< 250
6,"C[C@H](CCC(=O)Nc1ccc(C(N)=O)cc1)[C@H]1CC[C@H]2[C@@H]3CC=C4C[C@@H](O)CC[C@]4(C)[C@H]3CC[C@]12C [Example 556, 4-((R)-4-((3S,8S,9S,10R,13R,14S,17R)-3-hydroxy-10,13-dimethyl-2,3,4,7,8,9,10,11,12,13,14,15,16,17-tetradecahydro-1H-cyclopenta[a]phenanthren-17-yl)pentanamido)benzamide]",< 250
7,"CCN(CCc1ccccn1)C(=O)CC[C@@H](C)[C@H]1CC[C@H]2[C@@H]3CC=C4C[C@@H](O)CC[C@]4(C)[C@H]3CC[C@]12C [Example 541, (4R)-4-[(1R,3aS,3bS,7S,9aR,9bS,11aR)-7-hydroxy-9a,11a-dimethyl-1H,2H,3H,3aH,3bH,4H,6H,7H,8H,9H,9aH,9bH,10H,11H,11aH-cyclopenta[a]phenanthren-1-yl]-N-ethyl-N-[2-(pyridin-2-yl)ethyl]pentanamide]",< 250
8,"CNC(=O)[C@H]1CCN(C(=O)CC[C@@H](C)[C@H]2CC[C@H]3[C@@H]4CC=C5C[C@@H](O)CC[C@]5(C)[C@H]4CC[C@]23C)C1 [Example 536, (S)-1-((R)-4-((3S,8S,9S,10R,13R,14S,17R)-3-hydroxy-10,13-dimethyl-2,3,4,7,8,9,10,11,12,13,14,15,16,17-tetradecahydro-1H-cyclopenta[a]phenanthren-17-yl)pentanoyl)-N-methylpyrrolidine-3-carboxamide]",250 to 1000
9,"C[C@H](CCC(=O)N1CCCC(c2ccnnc2)C1)[C@H]1CC[C@H]2[C@@H]3CC=C4C[C@@H](O)CC[C@]4(C)[C@H]3CC[C@]12C (stereo partly drawn) [Example 345, (4R)-4-((3S,8S,9S,10R,13R,14S,17R)-3-hydroxy-10,13-dimethyl-2,3,4,7,8,9,10,11,12,13,14,15,16,17-tetradecahydro-1H-cyclopenta[a]phenanthren-17-yl)-1-(3-(pyridazin-4-yl)piperidin-1-yl)pentan-1-one]",250 to 1000
10,"C[C@H](CCC(=O)N1CCC[C@H](Oc2ccncc2)C1)[C@H]1CC[C@H]2[C@@H]3CC=C4C[C@@H](O)CC[C@]4(C)[C@H]3CC[C@]12C [Example 520, (R)-4-((3S,8S,9S,10R,13R,14S,17R)-3-hydroxy-10,13-dimethyl-2,3,4,7,8,9,10,11,12,13,14,15,16,17-tetradecahydro-1H-cyclopenta[a]phenanthren-17-yl)-1-((S)-3-(pyridin-4-yloxy)piperidin-1-yl)pentan-1-one]",< 250
11,"C[C@H](COc1cccc(CO)n1)[C@H]1CC[C@H]2[C@@H]3CC=C4C[C@@H](O)CC[C@]4(C)[C@H]3CC[C@]12C [Example 444, (3S,8S,9S,10R,13S,14S,17R)-17-((S)-1-((6-(hydroxymethyl)pyridin-2-yl)oxy)propan-2-yl)-10,13-dimethyl-2,3,4,7,8,9,10,11,12,13,14,15,16,17-tetradecahydro-1H-cyclopenta[a]phenanthren-3-ol]",< 250
12,"CCC1(O)CCN(C(=O)CC[C@@H](C)[C@H]2CC[C@H]3[C@@H]4CC=C5C[C@@H](O)CC[C@]5(C)[C@H]4CC[C@]23C)CC1 [Example 129, (R)-1-(4-ethyl-4-hydroxypiperidin-1-yl)-4-((3S,8S,9S,10R,13R,14S,17R)-3-hydroxy-10,13-dimethyl-2,3,4,7,8,9,10,11,12,13,14,15,16,17-tetradecahydro-1H-cyclopenta[a]phenanthren-17-yl)pentan-1-one]",< 250
13,"CNC(=O)c1cccc(OC[C@@H](C)[C@H]2CC[C@H]3[C@@H]4CC=C5C[C@@H](O)CC[C@]5(C)[C@H]4CC[C@]23C)n1 [Example 448, 6-((S)-2-((3S,8S,9S,10R,13S,14S,17R)-3-hydroxy-10,13-dimethyl-2,3,4,7,8,9,10,11,12,13,14,15,16,17-tetradecahydro-1H-cyclopenta[a]phenanthren-17-yl)propoxy)-N-methylpicolinamide]",250 to 1000
14,"C[C@H](CCC(=O)N1CCC(O)(CO)CC1)[C@H]1CC[C@H]2[C@@H]3CC=C4C[C@@H](O)CC[C@]4(C)[C@H]3CC[C@]12C [Example 150, (R)-4-((3S,8S,9S,10R,13R,14S,17R)-3-hydroxy-10,13-dimethyl-2,3,4,7,8,9,10,11,12,13,14,15,16,17-tetradecahydro-1H-cyclopenta[a]phenanthren-17-yl)-1-(4-hydroxy-4-(hydroxymethyl)piperidin-1-yl)pentan-1-one]",< 250
15,"CNC(=O)c1ncccc1O[C@@H](C)[C@H]1CC[C@H]2[C@@H]3CC=C4C[C@@H](O)CC[C@]4(C)[C@H]3CC[C@]12C [Example 267, 3-((S)-1-((3S,8S,9S,10R,13S,14S,17S)-3-hydroxy-10,13-dimethyl-2,3,4,7,8,9,10,11,12,13,14,15,16,17-tetradecahydro-1H-cyclopenta[a]phenanthren-17-yl)ethoxy)-N-methylpicolinamide]",250 to 1000
16,"CC(=O)N(C)C1CN(C(=O)CC[C@@H](C)[C@H]2CC[C@H]3[C@@H]4CC=C5C[C@@H](O)CC[C@]5(C)[C@H]4CC[C@]23C)C1 [Example 325, N-(1-((R)-4-((3S,8S,9S,10R,13R,14S,17R)-3-hydroxy-10,13-dimethyl-2,3,4,7,8,9,10,11,12,13,14,15,16,17-tetradecahydro-1H-cyclopenta[a]phenanthren-17-yl)pentanoyl)azetidin-3-yl)-N-methylacetamide]",250 to 1000
17,"CC(=O)N1CC2(C1)CN(C(=O)CC[C@@H](C)[C@H]1CC[C@H]3[C@@H]4CC=C5C[C@@H](O)CC[C@]5(C)[C@H]4CC[C@]13C)C2 [Example 328, (4R)-4-[(1R,3aS,3bS,7S,9aR,9bS,11aR)-7-hydroxy-9a,11a-dimethyl-1H,2H,3H,3aH,3bH,4H,6H,7H,8H,9H,9aH,9bH,10H,11H,11aH-cyclopenta[a]phenanthren-1-yl]-1-{6-acetyl-2,6-diazaspiro[3.3]heptan-2-yl}pentan-1-one]",250 to 1000
18,"COC(=O)N1CCN(C(=O)O[C@@H](C)[C@H]2CC[C@H]3[C@@H]4CC=C5C[C@@H](O)CC[C@]5(C)[C@H]4CC[C@]23C)CC1 [Example 466, 1-(1S)-1-[(1S,3aS,3bS,7S,9aR,9bS,11aS)-7-hydroxy-9a,11a-dimethyl-1H,2H,3H,3aH,3bH,4H,6H,7H,8H,9H,9aH,9bH,10H,11H,11aH-cyclopenta[a]phenanthren-1-yl]ethyl 4-methyl piperazine-1,4-dicarboxylate]",250 to 1000
19,"COC(=O)N1CCN(C(=O)NC[C@@H](C)[C@H]2CC[C@H]3[C@@H]4CC=C5C[C@@H](O)CC[C@]5(C)[C@H]4CC[C@]23C)CC1 [Example 467, Methyl 4-(((S)-2-((3S,8S,9S,10R,13S,14S,17R)-3-hydroxy-10,13-dimethyl-2,3,4,7,8,9,10,11,12,13,14,15,16,17-tetradecahydro-1H-cyclopenta[a]phenanthren-17-yl)propyl)carbamoyl)piperazine-1-carboxylate]",< 250
20,"C[C@H](CCC(=O)N(C)C)[C@H]1CC[C@H]2[C@@H]3CC=C4C[C@H](O)CC[C@]4(C)[C@H]3CC[C@]12C [Example 122, (R)-4-((3R,8S,9S,10R,13R,14S,17R)-3-hydroxy-10,13-dimethyl-2,3,4,7,8,9,10,11,12,13,14,15,16,17-tetradecahydro-1H-cyclopenta[a]phenanthren-17-yl)-N,N-dimethylpentanamide]",> 10000
21,"CC#CC1(O)CCN(C(=O)CC[C@@H](C)[C@H]2CC[C@H]3[C@@H]4CC=C5C[C@@H](O)CC[C@]5(C)[C@H]4CC[C@]23C)CC1 [Example 90, (R)-4-((3S,8S,9S,10R,13R,14S,17R)-3-hydroxy-10,13-dimethyl-2,3,4,7,8,9,10,11,12,13,14,15,16,17-tetradecahydro-1H-cyclopenta[a]phenanthren-17-yl)-1-(4-hydroxy-4-(prop-1-yn-1-yl)piperidin-1-yl)pentan-1-one]",< 250
